# Source: PubChem BioAssay (NCI)
# Several values for one entry are separate records, joined by “and”; a condition that tells them apart may be missing. Equal entries are not always repeated.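 Protocol summary: plate cells (96-well), add compound at 5 concentrations, incubate 48 h, interpolate endpoints linearly. At the GI50, growth is halved. TGI denotes the concentration required for complete inhibition of growth.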
# Key:
# Experiment in all cases: NCI-60 cell line screen, 48 h
# DMS 273 small cell lung = tested on: DMS 273 small cell lung
# XF 498 CNS = tested on: XF 498 CNS
# HOP-18 NSCLC = tested on: HOP-18 NSCLC
# KM20L2 colon = tested on: KM20L2 colon
# SNB-78 CNS = tested on: SNB-78 CNS
# DMS 114 small cell lung = tested on: DMS 114 small cell lung
# M19-MEL melanoma = tested on: M19-MEL melanoma
# MDA-N = tested on: MDA-N
# RXF-631 renal = tested on: RXF-631 renal
Structure (SMILES),TGI (DMS 273 small cell lung),TGI (XF 498 CNS),TGI (HOP-18 NSCLC),TGI (KM20L2 colon),TGI (SNB-78 CNS),TGI (DMS 114 small cell lung),TGI (M19-MEL melanoma),TGI (RXF-631 renal),also measured
CC(=O)c1sc(-c2nc(C)c(C(=O)/C=C\c3ccc(/C=C\C(=O)c4sc(-c5nc(C)c(C(C)=O)s5)nc4C)cc3)s2)nc1C,> 100 µM,> 100 µM,> 100 µM,> 100 µM,> 100 µM,> 100 µM,> 100 µM,–,–
COc1ccc(OC)c2c(/C=C/c3ccc(N(C)C)cc3)ccnc12,–,–,–,–,–,–,–,–,TGI (MDA-N): > 10 µM
C[C@]12CC[C@H](O)C[C@H]1CC[C@@H]1[C@@H]2CC[C@]2(C)[C@@H](C3=CC(=O)OC3)CC[C@]12O,–,–,–,–,–,–,–,–,TGI (MDA-N): 0.806 µM
COC(=O)/C(C#N)=C1\CCC(O)N1 (stereo unspecified),> 100 µM,> 100 µM,> 100 µM,> 100 µM,> 100 µM,> 100 µM,> 100 µM,–,–
COc1cc2ccc3c4cc(OC)c(OC(C)C)cc4cnc3c2cc1OC,–,–,> 100 µM,> 100 µM,> 100 µM,> 100 µM,> 100 µM,> 100 µM,–
O=c1[nH]cnc2cccc(Cl)c12,–,–,–,–,–,–,–,–,TGI (MDA-N): > 100 µM
C=C1C[C@]23CCC4C(C)(C)C(=O)CC[C@]4(C)C2C[C@H]1C(O)C3=O (stereo partly specified),–,> 75 µM,> 75 µM,> 75 µM,> 75 µM,–,> 75 µM,> 75 µM,–
CCCCOC(=O)NC(=O)c1cn(CCCOC(=O)NCCCCCCNC(=O)OCCCn2cc(C(=O)NC(=O)OCCCC)c(=O)[nH]c2=O)c(=O)[nH]c1=O,> 100 µM,93.1 µM,> 100 µM,> 100 µM,> 100 µM,> 100 µM,> 100 µM,> 100 µM,–
O=C1CC2C(=O)N(Cc3ccccc3)C1C=C2S(=O)(=O)c1ccccc1 (stereo unspecified),–,> 100 µM,> 100 µM,> 100 µM,> 100 µM,> 100 µM,> 100 µM,–,–
COC(=O)/C(C=O)=C/Sc1ccccc1,53.2 µM,> 100 µM,> 100 µM,94.7 µM,> 100 µM,41 µM,55.7 µM,45.7 µM,–
Nc1ccn(C2(CO)C=C(CO)C(O)C2O)c(=O)n1 (stereo unspecified),> 25.8 µM,–,> 25.8 µM,> 25.8 µM,> 25.8 µM,> 25.8 µM,> 25.8 µM,–,–
CC1=NN(C(=O)CC(=O)N(C(=O)c2ccccc2Cl)c2ccc(C)cc2)C(=O)C1N=Nc1ccc([N+](=O)[O-])cc1 (stereo unspecified),> 95.7 µM,> 100 µM,> 100 µM,> 90.1 µM,> 100 µM,> 60.5 µM,–,–,–
O=C(Nc1cc(Cl)ccc1Cl)C(=O)C(c1cnc2ccccc2n1)[N+](=O)[O-] (stereo unspecified),–,> 100 µM,> 100 µM,> 100 µM,> 100 µM,> 100 µM,> 100 µM,> 100 µM,–
CC(C)CCCC(C)[C@H]1CCC2[C@H]3C(CC[C@@]21C)[C@@]1(C)CCC=C[C@]12C[C@@H]2[C@@H]3O (stereo partly specified),> 100 µM,–,> 100 µM,> 100 µM,> 100 µM,> 100 µM,–,> 100 µM,–
Cc1cc(NS(=O)(=O)c2ccc(Nc3c4ccccc4nc4c(C(=O)NCCN(C)C)cccc34)cc2)no1,> 100 µM,> 100 µM,–,> 100 µM,80.4 µM,14 µM,> 100 µM,–,–
COc1cccc(-n2c3nc(=O)n(C)c(=O)c-3nc3ccccc32)c1,30.9 µM,42.7 µM,> 100 µM,62.6 µM,> 100 µM,25.4 µM,6.1 µM,76.7 µM,–
O=c1[nH]c2cc(Cl)ccc2nc1/C(=N\O)C(O)c1ccc(Cl)cc1Cl (stereo unspecified),> 100 µM,> 100 µM,–,> 100 µM,> 100 µM,> 100 µM,> 100 µM,> 100 µM,–
N.N.N.N.[Cl-].[Co+3].[N-]=[N+]=[N-].[N-]=[N+]=[N-],> 100 µM,–,–,> 100 µM,> 100 µM,–,–,–,GI50 (DMS 273 small cell lung): > 100 µM; GI50 (KM20L2 colon): > 100 µM; GI50 (SNB-78 CNS): > 100 µM
C[C@@]12CCCc3coc(c31)C(=O)c1cc3c(cc12)C(=O)C=CC3=O,> 1 µM,> 1 µM and 29.6 µM,> 1 µM and 28.2 µM,> 1 µM and 35.1 µM,> 1 µM,> 1 µM and 39.9 µM,> 1 µM and 28 µM,–,GI50 (XF 498 CNS): > 1 µM; GI50 (HOP-18 NSCLC): > 1 µM; GI50 (KM20L2 colon): > 1 µM; GI50 (DMS 114 small cell lung): > 1 µM; GI50 (M19-MEL melanoma): > 1 µM
C=CCNC(=O)N(CCC)CCCCC(NC(C)=O)C(=O)NCc1ccccc1 (stereo unspecified),> 100 µM,> 100 µM,> 100 µM,> 100 µM,–,> 100 µM,> 100 µM,–,–
C1C[OH+]CCNCC[OH+]CC[OH+]CCN1.[Cl-].[Pt+4],> 100 µM,–,> 100 µM,> 100 µM,–,–,–,–,GI50 (DMS 273 small cell lung): > 100 µM; GI50 (HOP-18 NSCLC): > 100 µM; GI50 (KM20L2 colon): > 100 µM
COC(=O)OCC1OC(N2C(=O)NC(=O)C(Br)C2N=[N+]=[N-])CC1OC(=O)OC (stereo unspecified),> 100 µM,> 100 µM,–,> 100 µM,> 100 µM,> 100 µM,> 100 µM,–,–

Structure (SMILES),TGI (DMS 273 small cell lung),TGI (XF 498 CNS),TGI (HOP-18 NSCLC),TGI (KM20L2 colon),TGI (SNB-78 CNS),TGI (DMS 114 small cell lung),TGI (M19-MEL melanoma),TGI (RXF-631 renal),also measured
CCOC(=N)CC(=O)Nc1cccc(C)c1C,> 100 µM,> 100 µM,–,> 100 µM,> 100 µM,–,> 100 µM,> 100 µM,–
CC1(C)O/C(=C\c2ccccc2)C(=O)/C(=C/c2ccccc2)O1,> 100 µM,54.4 µM,> 100 µM,–,> 100 µM,48.1 µM,> 100 µM,> 100 µM,–
CC(C)CNC(=O)O,–,–,–,–,–,–,–,–,TGI (MDA-N): > 100 µM
N=C(N)SCc1cccc(-c2nc3ccccc3c(=O)o2)c1,–,–,–,–,–,–,–,–,TGI (MDA-N): > 100 µM
CCOC(=O)c1c[nH]c2oc(/C=N/N3CC(CN4CCOCC4)OC3=O)cc2c1=O (stereo unspecified),–,–,–,–,–,–,–,–,TGI (MDA-N): > 100 µM
COC(=O)CCC(=O)CC1CC(=O)C2CCCN12 (stereo unspecified),> 100 µM,> 100 µM,> 100 µM,> 100 µM,> 100 µM,> 100 µM,> 100 µM,–,–
Nc1nc(CCl)nc(Nc2ccccc2)n1,14 µM,–,–,35.9 µM,–,36.5 µM,98.8 µM,–,–
Cc1c(C2=C(Br)C(=O)N(C)C2=O)c(=O)n(C)c(=O)n1C,–,–,–,–,–,–,–,–,TGI (MDA-N): 77.8 µM
COc1ccc(C2c3cc(OC)c(OC)cc3C(Cc3ccc([N+](=O)[O-])cc3)C2c2ccc([N+](=O)[O-])cc2)cc1OC (stereo unspecified),> 100 µM,> 100 µM,–,> 100 µM,> 100 µM,> 100 µM,> 100 µM,> 100 µM,–
C=C1C(=O)O[C@H]2/C=C(/C)C3=CC(=O)[C@@](C)(C[C@@H](OC(=O)/C(C)=C\C)C12)O3 (stereo partly specified),–,–,–,–,–,–,–,–,TGI (MDA-N): 6.24 µM
O=S1OC2(c3ccccc3-c3ccccc32)c2ccccc21 (stereo unspecified),–,> 100 µM,> 100 µM,> 100 µM,–,> 100 µM,> 100 µM,–,–
CC(C)OC(=O)NNc1cc(Cl)ccc1Cl,–,–,–,–,–,–,–,–,TGI (MDA-N): > 100 µM
CN1NC(=Nc2ccccc2)Sc2c1cnn(-c1ccccc1)c2=O,> 100 µM,–,> 100 µM,> 100 µM,–,> 100 µM,> 100 µM,–,–
CN(C)C(=S)/N=c1\ss/c(=N\C(=S)N(C)C)n1-c1ccc(Cl)c(Cl)c1,> 100 µM,–,–,> 100 µM,> 100 µM,> 100 µM,> 100 µM,–,–
C[n+]1cc(C(O)c2ccc3c(c2)OCO3)c2ccccc2c1 (stereo unspecified),> 100 µM,–,–,> 100 µM,> 100 µM,83.5 µM,> 100 µM,> 100 µM,–
N#CC(=NCCO)C1=C(O)c2ccccc2C1=O,–,–,–,–,–,–,–,–,TGI (MDA-N): > 100 µM
Cc1cc(C)c(C2[C@H]3C(=O)N(c4ccc(Cc5ccc(N6C(=O)[C@@H]7ON(c8ccccc8)C(c8c(C)cc(C)cc8C)[C@@H]7C6=O)cc5)cc4)C(=O)[C@H]3ON2c2ccccc2)c(C)c1 (stereo partly specified),> 100 µM,–,> 100 µM,> 100 µM,> 100 µM,> 100 µM,> 100 µM,> 100 µM,–
[Au+].[Au+].[Au+].[c-]1nccn1Cc1ccccc1.[c-]1nccn1Cc1ccccc1.[c-]1nccn1Cc1ccccc1,3.23 µM,3.13 µM,8.77 µM,> 73 µM,8.63 µM,3.13 µM,3.96 µM,–,GI50 (DMS 273 small cell lung): 1.66 µM; GI50 (XF 498 CNS): 1.74 µM; GI50 (HOP-18 NSCLC): 2.87 µM; GI50 (KM20L2 colon): 26.9 µM; GI50 (SNB-78 CNS): 2.84 µM; GI50 (MDA-N): 11.2 µM; TGI (MDA-N): 26.6 µM; GI50 (DMS 114 small cell lung): 1.65 µM; GI50 (M19-MEL melanoma): 2.01 µM
COC(=O)/C(C)=C/[N+](=O)[O-],34.6 µM,27.5 µM,31.9 µM,55.5 µM,49.8 µM,35.3 µM,32.6 µM,–,–
CN[C@@H](C)[C@H](NC)c1ccccc1,> 100 µM,–,> 100 µM,–,> 100 µM,> 100 µM,> 100 µM,> 100 µM,–
O=C1c2ccc3c4ccccc4n(Cc4ccccc4)c3c2C(=O)N1c1ccccc1,24.9 µM,–,24.4 µM,45.2 µM,71.7 µM,34.1 µM,33.2 µM,36.4 µM,–
C=CCSS/C=C/CS(=O)CC=C (stereo unspecified),–,–,–,–,–,–,–,–,TGI (MDA-N): 35.9 µM
